From paper PMC3869807 (PLoS ONE, 2013)
Where “and” joins values, the source holds several entries; their conditions need not be identical. Identical values can stand only once.

Key:
µ-opioid receptor [1] = target: T1, µ-opioid receptor (Homo sapiens, UniProt P35372); assay: cell-based; assay type: cell-based; set-up: host or cells: U2OS
µ-opioid receptor [2] = target: T1, µ-opioid receptor; assay: biochemical; set-up: host or cells: U2OS (membrane preparation)
µ-opioid receptor [3] = target: T1, µ-opioid receptor; assay: biochemical; assay type: binding; set-up: host or cells: U2OS (membrane preparation)
µ-opioid receptor [4] = target: T1, µ-opioid receptor; assay: biochemical; assay type: binding; set-up: host or cells: U2OS (membrane preparation); remark: listed apart in the source

T1 sequence (P35372 whole entry): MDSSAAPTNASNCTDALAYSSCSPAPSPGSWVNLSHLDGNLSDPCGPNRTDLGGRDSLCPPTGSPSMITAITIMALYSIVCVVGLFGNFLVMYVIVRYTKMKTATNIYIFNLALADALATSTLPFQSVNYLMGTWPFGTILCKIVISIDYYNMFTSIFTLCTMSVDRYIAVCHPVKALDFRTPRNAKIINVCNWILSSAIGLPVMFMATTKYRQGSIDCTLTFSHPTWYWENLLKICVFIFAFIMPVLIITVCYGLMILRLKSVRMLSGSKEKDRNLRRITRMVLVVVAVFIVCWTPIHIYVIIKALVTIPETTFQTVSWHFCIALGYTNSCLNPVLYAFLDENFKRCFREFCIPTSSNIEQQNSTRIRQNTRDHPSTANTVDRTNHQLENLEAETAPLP

SMILES | β-arrestin recruitment that was PTX sensitive (µ-opioid receptor [1]) | Emax (µ-opioid receptor [2]) | Emax (µ-opioid receptor [1]) [%] | Emax (µ-opioid receptor [1]; U2OS) [%] | Ki (µ-opioid receptor [3]; GRK2 moi 5 KH) [nM] | Ki (µ-opioid receptor [3]; Untransduced KH) [nM] | Ki (µ-opioid receptor [4]; GRK2 moi 5 KL) [nM] | Ki (µ-opioid receptor [4]; Untransduced KL) [nM] | EC50 (µ-opioid receptor [2]; EC50) | EC50 (µ-opioid receptor [1]; β-fun 1 nM EC50) [nM] | EC50 (µ-opioid receptor [1]; β-fun 10 nM EC50) [nM]
C[C@@H](NC(=O)[C@@H](N)Cc1ccc(O)cc1)C(=O)NCC(=O)N(C)[C@@H](Cc1ccccc1)C(=O)NCCO [DAMGO, [D-Ala^2, MePhe^4, gly^5 –ol]-enkephalin] | 60–70% |  |  |  |  |  |  |  |  |  | 
NC(=O)[C@H](Cc1ccccc1)NC(=O)[C@H](Cc1ccccc1)NC(=O)[C@@H]1CCCN1C(=O)[C@@H](N)Cc1ccc(O)cc1 [Endomorphin 2, endomorphin 2] |  | 104% and 101±2% | 74±4 | 69 ± 3 |  |  |  |  |  |  | 
COc1ccc2c3c1O[C@H]1C(=O)CC[C@@]4(O)[C@@H](C2)N(C)CC[C@]314 [Oxycodone, oxycodone] | 60–70% | 95% and 104±2% |  |  |  |  |  |  |  |  | 
CC(=O)N[C@@H](Cc1ccccc1)C(=O)NCC(C)(C)NC(=O)[C@@H](N)Cc1ccc(O)cc1.Cl [Pfizer comp 1, 2-(L-Tyrosylamino)-1-[(N-acetyl-L-phenylalanyl)-amino]-2-methylpropane hydrochloride] | 60–70% | 103% and 100±4% | 99±8 | 106 ± 4 | 0.0513 | 0.0479 | 21.9 | 42.7 | 0.219 nM and 0.17 nM | 1.38 | 2.24
